Measurements: the supplement of paper PMC9938120

Experiments:
Assay in all cases: drug sensitivity score (DSS3, normalised partial AUC of % inhibition dose-response) (DSS (score)); higher = more sensitive (stronger inhibition of viability); extreme values may be limits of the assay
[1] = tested on: FMOC02_2 (patient-derived low-grade serous ovarian cancer cells); conditions: 72 h; library: FO5A; assay format: 2D, 384-well, CellTiter-Glo
In short: (§1)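 Cells were dispensed onto 384-well flat clear-bottom plates already holding compounds at five concentrations over a 10,000-fold range, using patient-derived ovarian cancer cells at passage under 10. Incubation lasted 72 h at 37 °C in 5% CO2, after which CellTiter-Glo viability data were processed in Breeze. Higher drug sensitivity scores, each a partial area under the percent-inhibition dose-response curve divided by the log of the upper asymptote, mean more sensitive cells.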

[2] = tested on: FMOC02_3 (patient-derived low-grade serous ovarian cancer cells); conditions: 72 h; library: FO5A; assay format: 2D, 384-well, CellTiter-Glo
In short: as §1

[3] = tested on: FMOC03 (patient-derived mucinous ovarian cancer cells); conditions: 72 h; library: FO5A; assay format: 2D, 384-well, CellTiter-Glo
In short: as §1

[4] = tested on: FMOC06 (patient-derived mucinous ovarian cancer cells); conditions: 72 h; library: FO5A; assay format: 2D, 384-well, CellTiter-Glo
In short: as §1

[5] = tested on: FMOC09 (patient-derived high-grade serous ovarian cancer cells); conditions: 72 h; library: FO5A; assay format: 2D, 384-well, CellTiter-Glo
In short: as §1

[6] = tested on: FMOC14 (patient-derived high-grade serous ovarian cancer cells); conditions: 72 h; library: FO5A; assay format: 2D, 384-well, CellTiter-Glo
In short: as §1

[7] = tested on: FMOC22 (patient-derived mucinous ovarian cancer cells); conditions: 72 h; library: FO5A; assay format: 2D, 384-well, CellTiter-Glo
In short: as §1

[8] = tested on: FMOC24 (patient-derived high-grade serous ovarian cancer cells); conditions: 72 h; library: FO5A; assay format: 2D, 384-well, CellTiter-Glo
In short: as §1

[9] = tested on: FMOC25_1 (patient-derived low-grade serous ovarian cancer cells); conditions: 72 h; library: FO4B; assay format: 2D, 384-well, CellTiter-Glo
In short: as §1

[10] = tested on: FMOC25_2 (patient-derived low-grade serous ovarian cancer cells); conditions: 72 h; library: FO5A; assay format: 2D, 384-well, CellTiter-Glo
In short: as §1

Structure (SMILES) | drug sensitivity score [1] | drug sensitivity score [2] | drug sensitivity score [3] | drug sensitivity score [4] | drug sensitivity score [5] | drug sensitivity score [6] | drug sensitivity score [7] | drug sensitivity score [8] | drug sensitivity score [9] | drug sensitivity score [10]
COc1cc([C@@H]2c3cc4c(cc3[C@@H](O[C@@H]3O[C@@H]5CO[C@@H](C)O[C@H]5[C@H](O)[C@H]3O)[C@H]3COC(=O)[C@H]23)OCO4)cc(OC)c1O [Etoposide] | 1.4 | 2.7 | 1.7 | 3.5 | 5.6 | 1.7 | 6.1 | 1.9 | 2.8 | 2.9
CO[C@H]1C[C@@H]2CC[C@@H](C)[C@@](O)(O2)C(=O)C(=O)N2CCCC[C@H]2C(=O)O[C@H]([C@H](C)C[C@@H]2CC[C@@H](OCCO)[C@H](OC)C2)CC(=O)[C@H](C)/C=C(\C)[C@@H](O)[C@@H](OC)C(=O)[C@H](C)C[C@H](C)/C=C/C=C/C=C/1C [Everolimus] | 10 | 10.2 | 2.8 | 5.8 | 3.9 | 1.7 | 6.7 | 7.5 | 9.2 | 6.7
CCn1c(=O)c(-c2ccc(Cl)cc2Cl)cc2cnc(Nc3ccc(N4CCNCC4)c(F)c3)nc21 [FRAX486] | 12.2 | 14.7 | 2.4 | 1.7 | 3.7 | 0.2 | 0.1 | 9.45 | 3.2 | 11.9
Cc1cnc(Nc2ccc(OCCN3CCCC3)cc2)nc1Nc1cccc(S(=O)(=O)NC(C)(C)C)c1 [Fedratinib] | 10.4 | 12.2 | 3.2 | 2.8 | 5.1 | 1.7 | 2.3 | 6.9 | 5.7 | 11.3
CON(C)C(=O)N1N=C(c2cc(F)ccc2F)S[C@@]1(CCCN)c1ccccc1 [Filanesib] | 6.8 | 12.7 | 4.4 | 0 | 7.5 | 0 | 6.3 | 0 | 6.1 | 12
CCCCCCCCc1ccc(CCC(N)(CO)CO)cc1 [Fingolimod] | 7.7 | 6.1 | 5.1 | 7 | 6 | 7.3 | 5.3 | 10.8 | 6.2 | 5.7
O=c1[nH]c(=O)n([C@H]2C[C@H](O)[C@@H](CO)O2)cc1F [Floxuridine] | 2.6 | 2.3 | 4.1 | 0.8 | 2.2 | 0.8 | 9.3 | 0 | 0.5 | 3.8
O=C(NOCCO)c1ccc2cncn2c1Nc1ccc(I)cc1F [GDC-0623] | 7.3 | 5.3 | 1.3 | 6.1 | 4 | 0.1 | 7.2 | 1.35 | 9.6 | 11.2
CCOC(=O)CCNc1cc(N2CCc3ccccc3CC2)nc(-c2ccccn2)n1 [GSK-J4] | 0 | 3.2 | 3.2 | 4 | 0 | 1.3 | 4.3 | 3.9 | 6.7 | 7.5
Cc1cc(Nc2cc(CN3CCOCC3)c3nc(C)c(Cc4ccc(Cl)cc4F)n3n2)n[nH]1 [Gandotinib] | 16.3 | 10.1 | 4.7 | 8.9 | 5.1 | 6.1 | 1.8 | 7.6 | 3.7 | 18.8
CC(C)c1cc(-c2n[nH]c(=O)n2-c2ccc3c(ccn3C)c2)c(O)cc1O [Ganetespib] | 16.2 | 19.7 | 11.3 | 3.3 | 12.3 | 10.9 | 14.3 | 8.9 | 11.6 | 17.5
CN(C)C1CCN(C(=O)c2ccc(NC(=O)Nc3ccc(-c4nc(N5CCOCC5)nc(N5CCOCC5)n4)cc3)cc2)CC1 [Gedatolisib] | 8.2 | 13.3 | 8.2 | 12.4 | 11.3 | 10.2 | 10.7 | 9.05 | 16.3 | 19.9
COc1cc2ncnc(Nc3ccc(F)c(Cl)c3)c2cc1OCCCN1CCOCC1 [Gefitinib] | 17.3 | 15.1 | 16.2 | 5.4 | 10.9 | 6.6 | 1.5 | 5.8 | 9.8 | 16.5
Nc1ccn([C@@H]2O[C@H](CO)[C@@H](O)C2(F)F)c(=O)n1 [Gemcitabine] | 16.3 | 17.3 | 2.9 | 5.4 | 10.5 | 0 | 12.7 | 6 | 7.6 | 14.6
CCN(CC)Cc1ccc2cc(COC(=O)Nc3ccc(C(=O)NO)cc3)ccc2c1 [Givinostat] | 7.1 | 5.9 | 6.1 | 5.2 | 1.5 | 4.4 | 4.7 | 5.45 | 5.2 | 4
COc1cc2c(cc1-c1c(C)noc1C)ncc1[nH]c(=O)n([C@H](C)c3ccccn3)c12 [I-BET151] | 10.1 | 11.3 | 6.6 | 4.7 | 4.5 | 1.3 | 5.1 | 7.05 | 4.5 | 7.8
C=CC(=O)N1CCC[C@@H](n2nc(-c3ccc(Oc4ccccc4)cc3)c3c(N)ncnc32)C1 [Ibrutinib] | 10.2 | 7.3 | 8.8 | 0.3 | 6 | 2.7 | 0 | 0.5 | 5.6 | 6.5
